Measurements as given in US20240090503A1, “FUNGICIDAL OXADIAZOLES AND THEIR MIXTURES” (FMC CORPORATION, priority 2020, published 2024).
Marks after values point to notes of the source that are not given here.

How the values were obtained:
Assay type in all cases: in vivo
[1] = tested on: Phakopsora pachyrhizi (the causal agent of Asian soybean rust); test: Test A: preventive spray on soybean seedlings, Asian soybean rust, visual disease rating; settings: soybean seedlings
In short: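 Compound in acetone/water (50/50) with 250 ppm PEG400 sprayed to run-off on soybean seedlings; inoculated next day with Phakopsora pachyrhizi spores. Held 24 h at 22° C in saturated atmosphere, then 8 days in a 22° C growth chamber before visual rating as % disease control relative to controls.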

[2] = tested on: Zymoseptoria tritici (the causal agent of wheat leaf blotch); test: Test B: preventive spray on wheat seedlings, wheat leaf blotch, visual disease rating; settings: wheat seedlings
In short: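 This is a preventive test: spray application preceded Zymoseptoria tritici spore inoculation by one day. Test suspensions were in acetone/water with 250 ppm PEG400 surfactant, at the listed ppm rate. After 48 h saturated humidity at 24° C and 17 days at 20° C, visual ratings scored control from 0 to 100%.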

[3] = tested on: Puccinia recondita f. sp. tritici (the causal agent of wheat leaf rust); test: Test C: preventive spray on wheat seedlings, wheat leaf rust, visual disease rating; settings: wheat seedlings
In short: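 Wheat seedlings sprayed to run-off with compound in acetone/water (50/50) with 250 ppm PEG400, then inoculated with spores the following day. After 24 h saturated humidity at 20° C. and 6 days in growth chamber at 20° C., disease rated visually as % control relative to untreated controls.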

[4] = 10 ppm test suspension, 100 = 100% disease control, 0 = no control
[5] = 250 ppm test suspension, 100 = 100% disease control
[6] = test suspension 10 ppm, 100 = 100% disease control, 0 = no control

N#CCNC(=O)c1csc(COc2ccc(-c3noc(C(F)(F)F)n3)cc2)n1 [compound 473]
Test A disease control rating [1, 4]: 94% | Test B disease control rating [2, 5]: 28* % | Test C disease control rating [3, 4]: 89%

FC(F)(F)c1nc(-c2ccc(Cn3cc(Br)c(-c4ccccc4Cl)n3)cc2)no1 [compound 146]
Test A disease control rating ([1]; test suspension 250 ppm): 100% | Test B disease control rating ([2]; test suspension 250 ppm): 0% | Test C disease control rating ([3]; test suspension 250 ppm): 0%

O=C(C1=NOC(Cc2ccc(-c3noc(C(F)(F)F)n3)cc2)C1)N1CCC1 (stereo not drawn) [compound 177]
Test A disease control rating ([1]; test suspension 250 ppm): 100% | Test B disease control rating ([2]; test suspension 250 ppm): 97% | Test C disease control rating ([3]; test suspension 250 ppm): 100%

OC(c1ccc(-c2noc(C(F)(F)F)n2)cc1)c1cccc(F)c1 (stereo not drawn) [compound 498]
Test A disease control rating [1, 4]: 100% | Test B disease control rating [2, 5]: 43* % | Test C disease control rating [3, 4]: 0%

FC(F)(F)c1cc(C(F)(F)F)n(Cc2ccc(-c3noc(C(F)(F)F)n3)cc2)n1 [compound 144]
Test A disease control rating ([1]; test suspension 250 ppm): 36% | Test B disease control rating ([2]; test suspension 250 ppm): 0% | Test C disease control rating ([3]; test suspension 250 ppm): 0%

COC(=O)c1coc(COc2ccc(-c3noc(C(F)(F)F)n3)cc2)n1 [Compound 403, methyl 2-[[4-[5-(trifluoromethyl)-1,2,4-oxadiazol-3-yl]¬phenoxy]¬methyl]oxazole-4-carboxylate]
Test A disease control rating [1, 4]: 60% | Test B disease control rating [2, 5]: 47* % | Test C disease control rating [3, 4]: 0%

CCOC(=O)c1ccn(Cc2ccc(-c3noc(C(F)(F)F)n3)cc2)n1 [compound 114]
Test A disease control rating ([1]; test suspension 250 ppm): 100% | Test B disease control rating ([2]; test suspension 250 ppm): 0% | Test C disease control rating ([3]; test suspension 250 ppm): 100%

CCOC(=O)c1c2ccccc2nn1Cc1ccc(-c2noc(C(F)(F)F)n2)cc1 [compound 123]
Test A disease control rating ([1]; test suspension 255 ppm): 100% | Test B disease control rating ([2]; test suspension 255 ppm): 21% | Test C disease control rating ([3]; test suspension 255 ppm): 99%

CCOC(=O)c1cnn(Cn2ccc(-c3noc(C(F)(F)F)n3)cc2=O)c1 [compound 234]
Test A disease control rating [1, 6]: 100% | Test B disease control rating ([2]; test suspension 250 ppm): 87* % | Test C disease control rating ([3]; test suspension 10 ppm): 88%

N#CCNC(=O)c1ccc(Cc2ccc(-c3noc(C(F)(F)F)n3)cc2)cc1 [compound 283]
Test A disease control rating [1, 6]: 100% | Test B disease control rating ([2]; test suspension 250 ppm): 0* % | Test C disease control rating ([3]; test suspension 10 ppm): 98%

O=C(NCCF)c1coc(Cc2ccc(-c3noc(C(F)(F)F)n3)cc2)n1 [Compound 400, N-(2-fluoroethyl)-2-[[4-[5-(trifluoromethyl)-1,2,4-oxadiazol-3-yl]phenyl]methyl]-4-oxazolecarboxamide]
pest or weed control at 10 ppm ([1]; Phakopsora pachyrhizi, 216 h, 10 ppm test suspension, 100 = 100% disease control, 0 = no control): 100% | pest or weed control at 250 ppm ([2]; Zymoseptoria tritici, 456 h, 250 ppm test suspension, 100 = 100% disease control): 99% | pest or weed control at 10 ppm ([3]; Puccinia recondita, 168 h, 10 ppm test suspension, 100 = 100% disease control, 0 = no control): 100%

NC(=O)C1=NOC(Cc2ccc(-c3noc(C(F)(F)F)n3)cc2)C1 (stereo not drawn) [compound 164]
Test A disease control rating ([1]; test suspension 250 ppm): 100% | Test B disease control rating ([2]; test suspension 250 ppm): 88% | Test C disease control rating ([3]; test suspension 250 ppm): 100%

CCOC(=O)c1coc(Cc2ccc(-c3noc(C(F)(F)F)n3)cc2)n1 [compound 252]
Test A disease control rating [1, 6]: 100% | Test B disease control rating ([2]; test suspension 250 ppm): 92* % | Test C disease control rating ([3]; test suspension 10 ppm): 84%

O=C(NCCn1cccn1)c1csc(Cc2ccc(-c3noc(C(F)(F)F)n3)cc2)n1 [compound 396]
Test A disease control rating [1, 4]: 100% | Test B disease control rating [2, 5]: 28* % | Test C disease control rating [3, 4]: 100%

FC(F)(F)c1nc(-c2ccc(CN3CCOCC3)cc2)no1 [compound 96]
Test A disease control rating ([1]; test suspension 250 ppm): 100% | Test B disease control rating ([2]; test suspension 250 ppm): 0% | Test C disease control rating ([3]; test suspension 250 ppm): 99%

O=C(NCc1nccs1)c1coc(Cc2ccc(-c3noc(C(F)(F)F)n3)cc2)n1 [compound 277]
Test A disease control rating [1, 6]: 100% | Test B disease control rating ([2]; test suspension 250 ppm): 99* % | Test C disease control rating ([3]; test suspension 10 ppm): 100%
